Results as given in patent US5811393A (The Childrens Medical Center Corp., priority 1993, dated 1998).

Assays:
[1] = system: bovine aortic smooth muscle cells (BASMC); test: Bovine aortic smooth muscle cell proliferation by cell counting; format: cell-based; conditions: cells counted after three days, 1% calf serum
Procedure: Bovine aortic smooth muscle cell proliferation was also assayed by counting cell number following growth factor stimulation. In these experiments, cells were plated sparsely in 24 well plates in DMEM/10% bovine calf serum/1% GPS (100% GPS is glutamine 29.2 mg/ml, penicillin 10,000 units/ml, streptomycin sulfate 10,000 μg/ml; GIBCO, Grand Island, N.Y.) at 10^4 cells/well. Test samples were then added and, after three days, cells were removed by trypsinization and counted in a Coulter counter (Coulter, Hialeah, Fla.).
BASMC were plated in DMEM, 10% calf serum, 100 U/ml penicillin, 100 μg/ml streptomycin sulfate at 5×10^3 cells/well in a 24 well plate, and, after attachment of the cells (e.g., following an overnight incubation), the media was replaced with DMEM, 1% calf serum, and penicillin and streptomycin as above. HB-EHM, recombinant human EGF (Creative Biomolecules, Hopkinton, Mass.), or recombinant PDGF (Creative Biomolecules, Hopkinton, Mass.) was then added to the wells. Cells were counted after three days.

[2] = cited from earlier work
[3] = target: EGF receptor on bovine aortic smooth muscle cells (BASMC) (bovine)
EGF receptors on BASMC = test: Competitive [125I]EGF binding to bovine aortic smooth muscle cells; conditions: BASMC
Procedure: Competitive binding assays were used to measure this interaction and were performed as follows.

EGF receptor = EGF receptor autophosphorylation in A-431 cells (anti-phosphotyrosine Western blot); format: cell-based, human; conditions: 5 ng/ml, 15 minutes
Procedure: This was shown by plating A-431 cells in 6-well plates and culturing in Dulbecco's Modified Eagle's Medium (DMEM) containing 10% fetal bovine serum and antibiotics. […] After 15 minutes, the cells were washed with ice-cold phosphate-buffered saline containing 0.4 mm EDTA, 10 mM Na-fluorate, 10 mM Na-pyrophosphate and 0.4 mM Na-orthovanadate, scraped and lysed in 100 μl of PI/RIPA buffer [1% NP-40 (Pierce, Rockford, Ill.), 1% deoxycholate (Aldrich, Milwaukee, Wis.), 0.1% SDS, 1% aprotinin (Boehringer-Mannheim, Indianapolis, Ind.), 1 mM PMSF (Pierce), 2 mM EDTA (Sigma), 10 mM Na-fluorate, (Sigma, St. Louis, Mo.), 10 mM Na-pyrophosphate (Baker, Phillipsburg, N.J.), 0.4 mM Na-orthovanadate, (Aldrich), 10 mM iodoacetamide (Aldrich) in phosphate buffered saline]. Thirty μl of supernatant clarified by spinning for a 5 minute period in a microfuge was analyzed by reducing SDS/polyacrylamide gel electrophoresis (6% polyacrylamide gel). […] A standard of phosphorylated EGF receptor was purchased from UBI (Lake Placid, N.Y.).

[4] = target: EGF receptor on bovine aortic smooth muscle cells (BASMC) (bovine); remark: listed apart in the source
BALB/c mouse 3T3 cells = test: DNA synthesis ([3H]-thymidine incorporation) / proliferation of BALB/c mouse 3T3 cells; format: cell-based; conditions: E. coli-produced protein
Procedure: Conditioned medium was assayed for growth factor activity directly, as described below, using either fibroblasts (i.e., BALB/c mouse 3T3 cells), epithelial cells (i.e., human keratinocytes), or smooth muscle cells (i.e., bovine aortic smooth muscle cells, BASMC). Alternatively, CM was first fractionated by fast protein liquid chromatography (FPLC, Pharmacia, Piscataway, N.J.) by applying 500 ml of the CM to a TSK-heparin 5PW column (8×75 mm, TOSOHAAS, Philadelphia, Pa.). The column was washed with 10 column volumes of equilibration buffer (0.2M NaCl, 0.01M Tris-HCl, pH 7.5), and bound protein was eluted with a 40 ml linear gradient of 0.2-2M NaCl in 0.01M Tris-HCl , pH 7.4 at 1 ml/min. Fractions (2.5 ml) were tested for growth factor activity by measuring the effect of aliquots of the fractions on DNA synthesis in, or the proliferation of, BALB/c mouse 3T3 cells; such activity was monitored by assaying the incorporation of [^3 H]-thymidine into DNA and/or by measuring the increase in cell number. […] One unit of BALB/c mouse 3T3 stimulation activity was defined as the amount of growth factor required to stimulate half-maximal DNA synthesis in BALB/c mouse 3T3 cells under the conditions described in Shing et al. (supra).

PDGF
increase in BASMC proliferation ([1]; 500 pg/ml): 2.5 fold | NaCl concentration eluting from immobilized heparin columns ([2]; literature values): 0.5 M

recombinant human EGF (from UniProt P01133) (ligand)
BASMC proliferation (cell count after three days) (fold increase) [3]: 2.5

EGF: epidermal growth factor, recombinant human, commercial comparator [reference compound]
increase in BASMC proliferation ([1]; 4 ng/ml): 2.5 fold | 50% inhibition of [125I]EGF binding (EGF receptors on BASMC; 6-well plates): 290 pg/mL | IC50 (EGF receptors on BASMC; read-out: 50% inhibition of [125I]EGF binding, molar value in brackets): 48 pM | autophosphorylation of the EGF receptor (170 kDa protein) (EGF receptor): also phosphorylated | binding to heparin ([2]; conditions of the cited references): does not bind heparin to any substantial extent

B1: heparin binding EGF-homologous mitogen (HB-EHM), purified from U-937 conditioned medium, 33 minute peak form (ligand)
chain: RVTLSSKPQALATPNKEEHGKRKKKGKGLGKKRDPCLRKYKDFCIHGECKYVKELRAPSCICHPGYHGERCHGLS
modifications: O-linked glycosylation (suggested by O-glycanase treatment; the threonines predicted at positions 2 and 12 of the form first sequenced were not detected in protein sequencing)
Maximal Stimulation (ng/ml), from 3H-thymidine incorporation into smooth muscle cell DNA, C4 RP-HPLC step [4]: 0.5 ng/mL | BASMC proliferation (cell count after three days) (fold increase) [3]: 2.5

B2: recombinant HB-EHM: HB-EHM produced in E. coli from plasmid pNA28 as CAT fusion, cleaved, refolded and purified (protein)
chain: B1 chain
modifications: O-linked glycosylation (suggested by O-glycanase treatment; the threonines predicted at positions 2 and 12 of the form first sequenced were not detected in protein sequencing)
activity in the BALB/c 3T3 [3H]-thymidine uptake/incorporation assay (BALB/c mouse 3T3 cells): active
